Measured values taken from patent US8729097B2, “Quinoline compounds as inhibitors of angiogenesis, human methionine aminopeptidase, and SIRT1, and methods of treating disorders” (The Johns Hopkins University, priority 2008, dated 2014).

Columns and labels:
[1] = test system: HCC1954 human breast cancer cells; experiment: Breast cancer xenografts; type: in vivo, mice
Method: Approximately two million of HCC1954 cells were injected bilaterally and subcutaneously into female athymic nude mice (NCR nu/nu, n=5/group). After tumors became palpable, control mice were treated with vehicle (peanut oil with 5% DMSO). […] The tumor volume was measured using a vernier caliper and calculated according to the modified ellipsoid formula: Tumor volume (mm^3)=(short axis)^2×(long axis)×π/6
After 30 days of treatment, the mice were sacrificed and the tumor tissues were extracted for immunohistochemical analysis and Western blots.

SirT3 = SirT3 (Homo sapiens, UniProt Q9NTG7); experiment: biochemical
Method: The sirtuin fluorometric assay kits were obtained from Biomol. The assay was conducted according to the manufacturer's instruction. One unit of SirT1 was used per reaction. For SirT2 and SirT3, 2 units were used for the assay.

[2] = test system: breast cancer cells as well as human umbilical vein endothelial cells (HUVECs); experiment: Cell proliferation assay, breast cancer cells and HUVECs; type: cell-based; conditions: Homo sapiens, HUVEC, read-out: IC50 of proliferation, all the cell types
Method: Cell proliferation assay was performed using several different kinds of breast cancer cells as well as human umbilical vein endothelial cells (HUVECs). […].
HCC1954 cells were grown in RPMI1640 containing 10% FBS. HUVEC were grown using the EGM-2 bullet kit (Cambrex) as per manufacturer's instructions. The cells were maintained in a humidified incubator adjusted to 5% CO2. For drug screening, 10 mM stock solutions of Johns Hopkins Drug Library were arrayed in 96-well plates and screened at a final concentration of 10 μM. The cell growth was determined using a [^3H]-thymidine incorporation assay. Cells (typically 5,000 cells/well) were seeded in 96-well plates containing 0.2 ml of growth media and allowed to adhere for 24 h. The cells were then treated with drugs for 24 h. Cells were pulsed with 1 μCi [^3H]-thymidine (MP Biomedicals, 6.7 Ci mmol^−1) for 8 h and harvested, upon trypsin treatment, onto glass fiber filters (Wallac, Turku, Finland), from which ^3H counts were determined using a Perkin Elmer MicroBeta plate reader.

p53 and p21 mRNA = experiment: RT-PCR of p53 and p21 mRNA in HUVEC; type: cell-based, human; conditions: time-dependent
Method: Total RNA from cells was isolated by Trizol reagent (Invitrogen) according to manufacturer's instruction. The RNA was then reverse transcribed using Superscript III (Invitrogen) and the standard PCR procedure was conducted using specific primer sets for p53 and p21 as following; 5′-[…]-3′ (forward) and 5′-[…]-3′ (reverse) for p53, 5′-[…]-3′ (forward) and 5′-[…]-3′ (reverse) for p21. RT-PCR analysis of GAPDH was used as an internal control for normalization.

HUVEC = experiment: Endothelial cell tube formation assay; type: cell-based, human; conditions: Matrigel; EX527 1 μM, TNP470 10 nM
Method: HUVEC were seeded on a 96-well plate (2×10^4 cells/well) coated with Matrigel. The cells were then incubated for 16˜18 h in a humidified 5% CO2 incubator at 37° C. The cells were washed carefully with PBS once and Calcein-AM solution in PBS was then added to a final concentration of 2 μM. After incubation for an additional 30 min, the cells were washed carefully with PBS and observed under a fluorescence microscope (485 nm excitation/520 nm emission). The tube formed was quantified using AngioQuant v1.33 (The MathWorks).

[3] = test system: N-terminal methionine processing of 14-3-3γ by hMetAP2; experiment: N-terminal methionine processing of 14-3-3γ in HUVEC (Western blot); type: cell-based, human
Method: 14-3-3γ is known as a substrate of eukaryotic MetAPs and the inhibition of either isotype of MetAPs was reported to increase the N-terminal methionyl form of the protein.
Cells were lysed by adding 1 volume of 2× Laemmli buffer and were then boiled for 5 min. The samples were separated by SDS-PAGE and transferred to nitrocellulose membrane (Bio-Rad).

SirT3, sequence (Q9NTG7 whole entry): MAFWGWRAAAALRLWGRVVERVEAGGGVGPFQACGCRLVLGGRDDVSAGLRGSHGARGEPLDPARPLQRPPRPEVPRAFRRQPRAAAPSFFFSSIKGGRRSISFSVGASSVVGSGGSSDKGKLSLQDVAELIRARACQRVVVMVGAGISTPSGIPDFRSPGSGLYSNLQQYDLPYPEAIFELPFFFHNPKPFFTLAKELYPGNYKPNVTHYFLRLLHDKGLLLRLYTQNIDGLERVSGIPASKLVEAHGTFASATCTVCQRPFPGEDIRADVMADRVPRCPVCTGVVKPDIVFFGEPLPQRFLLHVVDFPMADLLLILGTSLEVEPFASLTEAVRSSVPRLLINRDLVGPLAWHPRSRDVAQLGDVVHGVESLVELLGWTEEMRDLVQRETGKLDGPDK

In the case of `O=[N+]([O-])c1ccc(O)c2ncccc12` [Entry 1c, nitroxoline], the “level of p53 protein in tumor tissues” value ([1]; Western blot of tumor tissues) is reported as “increased”, the “p53 acetylation in tumor tissues” value ([1]; Western blot of tumor tissues) is reported as “significantly induced p53 acetylation” and the tumor-associated angiogenesis ([1]; anti-CD31 immunohistochemical staining) is reported as “strongly inhibited”. For the same molecule, the “inhibition of growth of HCC1954 xenografts” value ([1]; day 30, 60 mg/kg i.p., nude mice) was 55%, the IC50 (SirT3) was > 50 µM and the IC50 [2] was 2 to 5 µM. The “p21 mRNA level” value (p53 and p21 mRNA) was “increased”, the “p53 mRNA level” value (p53 and p21 mRNA) was “decreased” and the HUVEC tube formation (HUVEC) was “inhibited”. The “N-terminal methioninylated 14-3-3γ level” value ([3]; 24 h) was “dose-dependently increased” and the inhibition at 5 µM ([3]; Homo sapiens, read-out: inhibition of the processing of 14-3-3γ compared with hMetAP2 siRNA) was ~80%.
